Results reported in article PMC3986399, “Discovery of Novel Allosteric Effectors Based on the Predicted Allosteric Sites for Escherichia coli D-3-Phosphoglycerate Dehydrogenase” (PLoS ONE, 2014).
Entries after “also recorded” stand apart in the source; their conditions may differ. Like-named read-outs stand apart in the source and are kept apart here.

What was measured:
PGDH mutant S146A = biological target: T1, PGDH mutant S146A (Escherichia coli, UniProt P0A9T0, S146A); test: PGDH enzyme assay, mutant S146A; type: biochemical
T1 construct: The PGDH coding region was ligated into the pET21a(+) vector; made in house; host or cells: E. coli BL21 (DE3)
Procedure: (§1) To evaluate the effects of compounds on PGDH activity, compounds were first examined to have no fluorescence absorption at 456 nm, and then pre-incubated with enzyme samples in the assay buffer (20 mM tris-(hydroxymethyl) aminomethane hydrochloride (Tris-HCl), pH 7.5, 1 mM DTT, 1 mM EDTA, and 0.25 mM NADH) for 6 min at 25°C. […] Fluorescence signals were recorded for 3 min with a kinetics mode program. The cofactor concentration in the assay buffer was 0.25 mM and the substrate concentration was 5 mM [28]. IC50 or AC50 values were obtained by fitting the data to a three-parameter Hill model of the graph of log dose against percentage inhibition or activation from at least three sets of experiments. Percentages of inhibition or activation were calculated according to the following equation: [drawing 1] in which Vo and Vi represent the maximum reaction rate of the enzyme incubated without or with compounds and Vn represents the maximum degradation rate of NADH.
(§2) All mutagenesis experiments were carried out according to the instructions of the QuikChange site-directed mutagenesis (Stratagene). The plasmid pET-21a(+)-containing wild-type (WT) PGDH was mutated to obtain the mutants E129A, S146A, F147A, K256A, K152AK230A, and E129AK256A. The DNA sequences of all mutants were verified by DNA sequencing. […]

PGDH (WT) = biological target: T2, PGDH (WT) (Escherichia coli, UniProt P0A9T0); test: SPR direct binding to immobilized PGDH
T2 construct: The PGDH coding region was ligated into the pET21a(+) vector; made in house; host or cells: E. coli BL21 (DE3)
Procedure: (§3) PGDH and its mutants were immobilized on a CM5 sensor chip by using standard amine-coupling at 25°C with running buffer HBS-P (20 mM […], 0.05% surfactant P-20, pH 7.4), respectively. […] A reference flow cell was activated and blocked in the absence of PGDH. […] Regeneration was achieved by extended washing with the running buffer after each sample injection. […] In the binding site verification SPR experiments, the sensor chip surface was immobilized with WT PGDH and its mutants to a RU of 4000, respectively. The analytes, compounds 1 and 2, were injected over the chip at a fixed concentration of 50 and 25 µM, respectively.

PGDH mutant K152AK230A = biological target: T3, PGDH mutant K152AK230A (Escherichia coli, UniProt P0A9T0, K152A/K230A); test: PGDH enzyme assay, mutant K152AK230A; type: biochemical
T3 construct: The PGDH coding region was ligated into the pET21a(+) vector; made in house; host or cells: E. coli BL21 (DE3)
Procedure: as §1, §2

PGDH [1] = biological target: T4, PGDH (Escherichia coli, UniProt P0A9T0); test: Serine-compound competition experiment; type: biochemical; details: compound 40 µM; serine 1.6 to 200 µM
T4 construct: The PGDH coding region was ligated into the pET21a(+) vector; made in house; host or cells: E. coli BL21 (DE3)
Procedure: Serine-compound competition experiment
Serine-compound competition experiments were did like that for compound-substrate experiments, before the reaction was started, the enzyme was pre-incubated with the mixture of serine and compound for 6 minutes. During this process, compound was kept at a constant inhibitory concentration, and the serine concentrations were changed from 1.6 to 200
μM. The concentrations of compounds 1 and 2 were selected as 40 μM. […]

PGDH [2] = biological target: T4, PGDH; test: Compound-substrate competition experiments; type: biochemical; details: for competition with the substrate: constant compound concentration, increasing α-ketoglutarate; for inhibition at 50 µM: substrate increased from 156 µM to 10 mM, compound 50 µM, read-out: percentage of inhibition with increasing substrate
Procedure: To investigate competition effects between the compounds and the substrate α-ketoglutarate, we performed compound-substrate competition experiments as follows:
Before α-ketoglutarate was added to start the reaction, the enzyme sample was pre-incubated with the cofactor and the compound for 6 min at 25°C. […] The cofactor NADH concentration was kept constant at 0.25 mM. […]
Serine-compound competition experiment […]
Competition experiments for analogs and the substrate
1-3 were kept at 92, 100, and 120 μM, while gradually increasing the substrate
concentration from 78 μM to 625 μM. […]

PGDH mutant F147A [3] = biological target: T5, PGDH mutant F147A (Escherichia coli, UniProt P0A9T0, F147A); test: SPR binding site verification, site I mutant F147A; details: compound 1 at 50 µM, compound 2 at 25 µM
T5 construct: The PGDH coding region was ligated into the pET21a(+) vector; made in house; host or cells: E. coli BL21 (DE3)
Procedure: as §3
(§4) We also tested whether compounds 1 and 2 might interact with the other allosteric site (site II) we discovered before. The key binding residue in site II, Y410 was mutated to A. The binding of these two compounds with the wild type enzyme, Y410A, and two site I mutants (F147A, E129AK256A) were tested using SPR direct binding assay. The immobilization levels for WT, Y410A, F147A and E129AK256A were kept almost the same (3506, 3792, 3756 and 3600 RU, respectively) and the concentrations of compounds 1 and 2 were kept at 50 µM and 25 µM. […] This verified that both compounds 1 and 2 bind specifically to the site I as designed.

PGDH [4] = biological target: T4, PGDH; test: Enzyme kinetic analysis (Michaelis-Menten); type: biochemical; details: compound 0 to 120 µM
Procedure: As in the competition experiments, enzyme reaction velocity vs. substrate relationships were measured at various compound concentrations. The compound concentrations used were 120, 80, 40, 24, 8, 4.8, 1.6, and 0.32 µM.
To evaluate the effects of the compounds on enzyme kinetics, Michaelis-Menten plots of PGDH incubated with different concentrations of compounds were measured. The apparent kinetic parameters kcat and Km were estimated by non-linear curve-fitting using Graphpad Prism 5.0 software, and their values are shown in Figure 6. […] The kcat of the pure enzyme was about 2.6 s^−1, which was in between the kcat values of the enzyme at the molecular concentrations of 8 µM and 24 µM.

PGDH mutant Y410A = biological target: T6, PGDH mutant Y410A (Escherichia coli, UniProt P0A9T0, Y410A); test: SPR binding site verification, site II mutant Y410A; details: compound 1 at 50 µM, compound 2 at 25 µM
T6 construct: The PGDH coding region was ligated into the pET21a(+) vector; made in house
Procedure: as §3, §4

PGDH mutant E129AK256A [5] = biological target: T7, PGDH mutant E129AK256A (Escherichia coli, UniProt P0A9T0, E129A/K256A); test: SPR binding site verification, site I mutant E129AK256A; details: compound 1 at 50 µM, compound 2 at 25 µM
T7 construct: The PGDH coding region was ligated into the pET21a(+) vector; made in house; host or cells: E. coli BL21 (DE3)
Procedure: as §3, §4

PGDH mutant F147A [6] = biological target: T5, PGDH mutant F147A; test: PGDH enzyme assay, mutant F147A; type: biochemical
Procedure: as §1, §2

E. coli PGDH (wild type) = biological target: T8, E. coli PGDH (wild type) (Escherichia coli, UniProt P0A9T0); test: PGDH enzyme assay (NADH fluorescence, α-ketoglutarate substrate), wild type; type: biochemical; details: for inhibition at 50 µM: compound 50 µM; for maximum enzyme activity (residual activity, activation): low compound concentration, >100% = activation
T8 construct: The PGDH coding region was ligated into the pET21a(+) vector; made in house; host or cells: E. coli BL21 (DE3)
Procedure: as §1

PGDH mutant E129A = biological target: T9, PGDH mutant E129A (Escherichia coli, UniProt P0A9T0, E129A); test: PGDH enzyme assay, mutant E129A; type: biochemical
T9 construct: The PGDH coding region was ligated into the pET21a(+) vector; made in house; host or cells: E. coli BL21 (DE3)
Procedure: as §1, §2

PGDH mutant K256A = biological target: T10, PGDH mutant K256A (Escherichia coli, UniProt P0A9T0, K256A); test: PGDH enzyme assay, mutant K256A; type: biochemical
T10 construct: The PGDH coding region was ligated into the pET21a(+) vector; made in house; host or cells: E. coli BL21 (DE3)
Procedure: as §1, §2

PGDH mutant E129AK256A [7] = biological target: T7, PGDH mutant E129AK256A; test: PGDH enzyme assay, mutant E129AK256A; type: biochemical
Procedure: as §1, §2

PGDH from pea = details: PGDH from peas, cited from earlier work
[8] = wild type PGDH, substrate 5 mM, NADH 0.25 mM, read-out: IC50

| SMILES | influence on the inhibitory ability of serine (PGDH [1]) | competition with the substrate (PGDH [2]) | inhibition at 50 µM (PGDH [2]) [%] | compound binding ability to F147A versus WT (PGDH mutant F147A [3]) | effect on Km / substrate affinity of the enzyme (PGDH [4]) | compound binding ability to Y410A versus WT (PGDH mutant Y410A) | compound binding ability to E129AK256A versus WT (PGDH mutant E129AK256A [5]) | IC50 (PGDH mutant F147A [6]) [µM] | inhibition at 50 µM (E. coli PGDH (wild type); substrate 5 mM) [%] | maximum enzyme activity (residual activity, activation) (E. coli PGDH (wild type); substrate 5 mM) | concentration above which the compound is an inhibitor (E. coli PGDH (wild type); substrate 5 mM) | IC50 (E. coli PGDH (wild type); [8]) [µM] | other results |
| --- | --- | --- | --- | --- | --- | --- | --- | --- | --- | --- | --- | --- | --- |
| O=C1NC(=S)NC(=O)C1=Cc1ccc(OC(=O)c2ccc3nc(-c4ccccc4)c(-c4ccccc4)nc3c2)cc1 [Compound 1] | no significant effect; also recorded: not significantly influenced | do not competitively bind to the same site | 20 to 50 | a large decrease in compound binding ability | enhanced the substrate affinity for the enzyme | retained the same extent of compound binding ability as WT | a large decrease in compound binding ability | 181 ± 26 | ~50 | about 140% | > 16 µM | – | IC50 (PGDH mutant S146A): 175 ± 88 µM; Kd (PGDH (WT)): 42.6 ± 2.1 µM; IC50 (PGDH mutant K152AK230A): > 200 µM; IC50 (E. coli PGDH (wild type)): 34.8 ± 1.3 µM |
| Cc1ccc(N2NC(=O)/C(=C/c3ccc(-c4ccc(S(=O)(=O)Nc5nccs5)cc4)o3)C2=O)cc1C [Compound 2] | no significant effect; also recorded: not significantly influenced | do not competitively bind to the same site | 20 to 50 | a large decrease in compound binding ability | enhanced the substrate affinity for the enzyme | retained the same extent of compound binding ability as WT | a large decrease in compound binding ability | 158 ± 22 | ~50 | 163% | above 1.6 µM | 58 ± 9 | IC50 (PGDH mutant E129A): 99 ± 13 µM; Kd (PGDH (WT); SPR, 1:1 Langmuir binding model, PGDH 800 RU, read-out: KD): 19 ± 1.9 µM; IC50 (PGDH mutant K256A): > 200 µM; IC50 (PGDH mutant E129AK256A [7]): > 200 µM; AC50 (E. coli PGDH (wild type); fit of activation dose response curve, substrate 5 mM): 0.0347 µM; concentration at which activation starts (E. coli PGDH (wild type); substrate 5 mM): about 2 nM; concentration of highest activation (E. coli PGDH (wild type); substrate 5 mM): about 64 nM |
| Cc1ccccc1C(=O)Nc1ccccc1C(=O)N/N=C/c1ccccc1OCc1ccccc1[N+](=O)[O-] [Compound 3] | – | percentage inhibition did not change | – | – | – | – | – | – | – | – | – | 131 ± 12 | SPR binding ability (PGDH (WT); no reliable KD obtained): weak binding ability; inhibition at 130 µM (E. coli PGDH (wild type); compound 130 µM, substrate 5 mM): ~50%; maximal inhibition rate (E. coli PGDH (wild type); partial dose-inhibition curve due to solubility restriction): 61.9% |
| CSCC[C@H](N)C(=O)O [L-methionine] | – | – | – | – | – | – | – | – | – | – | – | – | increase in enzyme activity (PGDH from pea; at maximal activation): four- to five; concentration of maximal activation (PGDH from pea): 10 mM |
